Here are results for 20 compounds from ChEMBL document CHEMBL4261605, “Discovery of a novel series of pyridine and pyrimidine carboxamides as potent and selective covalent inhibitors of Btk” (Bioorg Med Chem Lett, 2018).

In data set [1] the target is T1, Tyrosine-protein kinase BTK (Homo sapiens, UniProt Q06187). Put plainly: Inhibition of recombinant human full length N-terminal GST-tagged BTK (2 to 659 residues) expressed in baculovirus expression system using FITC-AHA-EEPLYWSFPAKKK-NH2 substrate measured after 90 mins by off-chip mobility shift assay.
The target in data set [2] is T1, Tyrosine-protein kinase BTK. Put plainly: Inhibition of BTK in goat anti-human IgM F(ab')2-stimulated human PBMC assessed as suppression of BCR-induced CD69 expression on B cells pretreated for 1 hr followed by blood stimulation measured after overnight incubation by flow cytometry. The class given is cell-based. On the technique in general: Flow cytometry measures light scatter and fluorescence of single cells or particles in a stream.

Data set [3] has the same target. Put plainly: Inhibition of recombinant human full length N-terminal GST-tagged BTK (2 to 659 residues) expressed in baculovirus expression system at 100 uM using FITC-AHA-EEPLYWSFPAKKK-NH2 substrate measured after 90 mins by off-chip mobility shift assay relative to control.
Data set [4] can be described thus: Permeability across apical to basolateral side in human Caco2 cells. To be noted: Caco-2. In general terms: Passage across Caco-2 layers is used to estimate intestinal permeability.
Data set [5] in a line: Efflux ratio of permeability in human Caco2 cells. Particulars: Caco-2.
Data set [6] can be described thus: Half life in mouse at 0.5 mg/kg, po. The class given is ADME, organism-based. To be noted: in vivo.
The nature of data set [7]: AUC in mouse at 0.5 mg/kg, po. It is filed as ADME, organism-based. To be noted: in vivo.
In another data set the target is Cytochrome P450 2C9 (Homo sapiens, UniProt P11712). Description: Inhibition of CYP2C9 (unknown origin). It is filed as ADME.
Another data set addresses T2, Cytochrome P450 2B6 (Homo sapiens, UniProt P20813).
T2 sequence (P20813 whole entry): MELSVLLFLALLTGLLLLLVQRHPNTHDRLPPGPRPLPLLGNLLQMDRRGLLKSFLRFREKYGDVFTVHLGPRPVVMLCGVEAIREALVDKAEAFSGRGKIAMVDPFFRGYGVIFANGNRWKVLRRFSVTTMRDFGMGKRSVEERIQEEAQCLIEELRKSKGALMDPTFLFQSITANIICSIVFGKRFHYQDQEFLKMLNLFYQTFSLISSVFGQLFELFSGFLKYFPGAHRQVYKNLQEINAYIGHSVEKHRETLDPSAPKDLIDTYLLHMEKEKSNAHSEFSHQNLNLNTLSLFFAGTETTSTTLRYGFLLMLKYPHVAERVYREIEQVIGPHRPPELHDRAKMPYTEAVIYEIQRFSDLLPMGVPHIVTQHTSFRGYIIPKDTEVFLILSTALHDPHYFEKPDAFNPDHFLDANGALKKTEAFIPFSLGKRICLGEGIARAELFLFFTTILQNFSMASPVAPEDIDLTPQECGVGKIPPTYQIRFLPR
Put plainly: Inhibition of CYP2B6 (unknown origin). The class given is ADME.

The target in a further data set is Cytochrome P450 2C19 (Homo sapiens, UniProt P33261). Description: Inhibition of CYP2C19 (unknown origin). It is filed as ADME.
In the next data set the target is T3, Cytochrome P450 2C8 (Homo sapiens, UniProt P10632).
T3 sequence (P10632 whole entry): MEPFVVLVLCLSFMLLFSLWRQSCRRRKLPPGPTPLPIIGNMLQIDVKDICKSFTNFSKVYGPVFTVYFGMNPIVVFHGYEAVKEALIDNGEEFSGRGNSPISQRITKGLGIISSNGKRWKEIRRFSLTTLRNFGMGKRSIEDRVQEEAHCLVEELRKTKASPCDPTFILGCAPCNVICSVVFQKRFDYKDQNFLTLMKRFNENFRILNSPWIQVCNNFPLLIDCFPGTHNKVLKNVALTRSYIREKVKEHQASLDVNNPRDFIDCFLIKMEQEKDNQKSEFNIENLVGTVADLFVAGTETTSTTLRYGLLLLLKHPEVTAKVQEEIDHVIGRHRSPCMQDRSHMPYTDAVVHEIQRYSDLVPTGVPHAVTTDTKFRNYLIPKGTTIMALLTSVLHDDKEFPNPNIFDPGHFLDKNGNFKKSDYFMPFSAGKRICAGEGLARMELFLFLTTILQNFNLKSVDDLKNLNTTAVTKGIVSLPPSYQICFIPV
Description: Inhibition of CYP2C8 (unknown origin). The class given is ADME.

The target in another data set is Cytochrome P450 3A4 (Homo sapiens, UniProt P08684). Put plainly: Inhibition of CYP3A4 (unknown origin). The class given is ADME.
Chain of Cytochrome P450 3A4 (P08684 whole entry): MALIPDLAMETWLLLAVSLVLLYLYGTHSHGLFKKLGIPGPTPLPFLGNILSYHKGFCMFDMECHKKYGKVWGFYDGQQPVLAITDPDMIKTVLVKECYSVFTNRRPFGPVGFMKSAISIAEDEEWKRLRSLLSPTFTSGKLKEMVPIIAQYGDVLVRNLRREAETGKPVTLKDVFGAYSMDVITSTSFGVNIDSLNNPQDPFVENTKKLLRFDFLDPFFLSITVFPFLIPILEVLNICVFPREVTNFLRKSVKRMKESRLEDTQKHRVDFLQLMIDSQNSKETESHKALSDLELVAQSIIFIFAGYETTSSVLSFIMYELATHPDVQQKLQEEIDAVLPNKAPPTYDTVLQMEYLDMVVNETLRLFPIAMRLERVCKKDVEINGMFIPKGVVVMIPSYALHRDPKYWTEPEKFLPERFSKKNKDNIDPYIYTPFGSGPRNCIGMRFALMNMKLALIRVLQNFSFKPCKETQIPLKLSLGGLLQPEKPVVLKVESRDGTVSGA

T1 sequence (Q06187 whole entry, the tested form may be a part): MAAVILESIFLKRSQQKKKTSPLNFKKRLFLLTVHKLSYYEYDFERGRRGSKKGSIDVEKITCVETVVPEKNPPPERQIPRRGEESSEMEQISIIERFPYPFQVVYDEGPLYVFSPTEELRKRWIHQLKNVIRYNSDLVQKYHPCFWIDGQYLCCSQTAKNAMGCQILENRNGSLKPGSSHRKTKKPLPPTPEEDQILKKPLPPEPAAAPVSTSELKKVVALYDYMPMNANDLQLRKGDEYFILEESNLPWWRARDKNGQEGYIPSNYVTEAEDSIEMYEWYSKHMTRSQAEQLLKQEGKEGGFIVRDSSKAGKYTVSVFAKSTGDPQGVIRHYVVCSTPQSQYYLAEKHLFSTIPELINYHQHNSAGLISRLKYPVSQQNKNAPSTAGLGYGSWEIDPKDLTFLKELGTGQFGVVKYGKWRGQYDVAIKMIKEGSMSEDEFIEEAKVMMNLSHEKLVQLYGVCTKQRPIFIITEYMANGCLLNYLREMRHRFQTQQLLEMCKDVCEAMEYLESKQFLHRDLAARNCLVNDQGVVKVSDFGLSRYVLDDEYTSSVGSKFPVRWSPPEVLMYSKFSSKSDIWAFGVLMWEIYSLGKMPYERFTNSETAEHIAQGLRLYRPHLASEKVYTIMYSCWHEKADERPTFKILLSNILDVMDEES
Chain of Cytochrome P450 2C9 (P11712 whole entry): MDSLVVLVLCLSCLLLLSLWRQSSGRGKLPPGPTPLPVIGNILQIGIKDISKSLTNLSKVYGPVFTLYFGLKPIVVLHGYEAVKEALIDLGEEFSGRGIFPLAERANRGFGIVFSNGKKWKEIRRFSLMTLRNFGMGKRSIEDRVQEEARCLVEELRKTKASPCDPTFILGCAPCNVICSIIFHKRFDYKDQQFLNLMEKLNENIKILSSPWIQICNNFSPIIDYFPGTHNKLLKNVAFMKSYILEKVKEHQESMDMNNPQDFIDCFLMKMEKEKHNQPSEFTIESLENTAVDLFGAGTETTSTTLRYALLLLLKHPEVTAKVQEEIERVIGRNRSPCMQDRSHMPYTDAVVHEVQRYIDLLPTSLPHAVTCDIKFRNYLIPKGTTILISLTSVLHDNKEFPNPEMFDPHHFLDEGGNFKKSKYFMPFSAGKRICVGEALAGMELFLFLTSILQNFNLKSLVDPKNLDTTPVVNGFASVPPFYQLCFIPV
Chain of Cytochrome P450 2C19 (P33261 whole entry): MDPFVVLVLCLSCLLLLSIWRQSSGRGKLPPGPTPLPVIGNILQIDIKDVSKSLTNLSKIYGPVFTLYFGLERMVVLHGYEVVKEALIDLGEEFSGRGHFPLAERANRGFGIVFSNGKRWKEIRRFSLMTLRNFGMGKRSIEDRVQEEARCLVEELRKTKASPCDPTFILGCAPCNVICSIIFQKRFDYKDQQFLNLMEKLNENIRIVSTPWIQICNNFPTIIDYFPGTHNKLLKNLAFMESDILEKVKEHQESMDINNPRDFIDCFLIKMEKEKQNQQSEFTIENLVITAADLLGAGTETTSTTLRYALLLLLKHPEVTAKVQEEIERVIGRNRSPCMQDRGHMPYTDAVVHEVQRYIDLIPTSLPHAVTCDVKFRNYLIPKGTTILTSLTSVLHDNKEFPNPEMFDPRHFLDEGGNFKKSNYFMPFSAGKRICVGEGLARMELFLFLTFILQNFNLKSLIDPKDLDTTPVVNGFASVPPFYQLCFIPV

Take `C=CC(=O)N[C@H]1CCN(c2ncc(C(N)=O)c(Nc3ccc(F)cc3)n2)C1`: the IC50 in [1] amounted to 8 nM.
On the same count and under the same terms, the result for `C=CC(=O)N[C@H]1CCN(c2ncc(C(N)=O)c(N)n2)C1` reads 180 nM.
Consider `C=CC(=O)N[C@H]1CCN(c2ccc(C(N)=O)c(Nc3ccc(Oc4ccccc4)cc3)n2)C1`, for which the IC50 in data set [1] turned out to be 11 nM.
As to `C=CC(=O)N[C@H]1CCN(c2ccc(C(N)=O)c(Nc3ccc(N4C[C@@H](C)O[C@@H](C)C4)cc3)n2)C1`, the IC50 in data set [1] was determined as 0.6 nM; in data set [2], 6.1 nM.
Take `C=CC(=O)N[C@@H]1CCN(c2ccc(C(N)=O)c(Nc3ccc(C(=O)N4CCOCC4)cc3)n2)C1`: the IC50 in [1] was 16.2 nM.
For the compound `NC(=O)c1ccc(NC2CCCCC2)nc1`, the inhibition in [3] is 71%. Moreover, the IC50 in data set [1] was > 6000 nM.
For `C=CC(=O)N[C@H]1CCN(c2ccc(C(N)=O)c(Nc3ccc(C(=O)N4CCOCC4)cc3)n2)C1`, the IC50 in [1] was 1.5 nM.
As to `C=CC(=O)N[C@H]1CCCN(c2ccc(C(N)=O)c(Nc3ccc(C(=O)N4CCOCC4)cc3)n2)C1`, the IC50 in data set [1] is 16 nM.
The same measure, in the same setting: the result for `C=CC(=O)N[C@H]1CCN(c2ncc(C(N)=O)c(Nc3ccc(C(=O)N4CCOCC4)cc3)n2)C1` reads 0.5 nM.
Take `C=CC(=O)N(C)[C@H]1CCN(c2ccc(C(N)=O)c(Nc3ccc(CCN4CCCC4)cc3)n2)C1`: the 50% inhibitory concentration (IC50) in [1] was 1.3 nM; in data set [2] it was 41 nM. Also, the Papp A→B in [4] is 0.07 ×10⁻⁶ cm/s. Further, in data set [5], the efflux ratio was found to be 266.
In the case of `C=CC(=O)N[C@H]1CCN(c2ccc(C(N)=O)c(NC3CCCCC3)n2)C1`, the IC50 in data set [1] is > 6000 nM.
In data set [6], `C=CC(=O)N1CCC[C@@H](n2nc(-c3ccc(Oc4ccccc4)cc3)c3c(N)ncnc32)C1` [IBRUTINIB] had a half-life of 30 min. The compound also registered an AUC in [7] of 26 ng·h/mL. In addition, the INH turned out to be 8.5 µM at Cytochrome P450 2C9; 11.1 µM at Cytochrome P450 2B6; 19 µM at Cytochrome P450 2C19; 7.9 µM on Cytochrome P450 2C8; 11 µM at Cytochrome P450 3A4.
Take `C=CC(=O)N1CCN(c2ccc(C(N)=O)c(Nc3ccc(CCN4CCCC4)cc3)n2)CC1`: the IC50 in [1] came out at 0.3 nM; in [2], 4.3 nM.
Taken in the same sequence, the figures for `C=CC(=O)N[C@H]1CCN(c2ccc(C(N)=O)c(Nc3ccc(CCN4CCCC4)cc3)n2)C1` were 1.9 nM and 7 nM.
`C=CC(=O)N[C@H]1CCN(c2ncc(C(N)=O)c(Nc3ccc(C(=O)N4CC(C)OC(C)C4)cc3)n2)C1` (some centres undefined): the IC50 in [1] was 1.1 nM; in data set [2], 44 nM.
Taken in the same sequence, the figures for `C=CC(=O)N1C[C@H]2C[C@@H]1CN2c1ccc(C(N)=O)c(Nc2ccc(C)nc2)n1` were 0.1 nM and 1.4 nM.
Taken in the same sequence, the figures for `C=CC(=O)N[C@H]1CCN(c2nc(Nc3ccc(N4C[C@@H](C)O[C@@H](C)C4)cc3)c(C(N)=O)cc2F)C1` were 1.6 nM and 14 nM.
As for `C=CC(=O)N[C@@H]1CN(c2ccc(C(N)=O)c(Nc3ccc(CCN4CCCC4)cc3)n2)CC12CC2`, the IC50 was 0.09 nM in data set [1] and 4.9 nM in [2]. The compound further showed an apparent permeability from apical to basolateral (Papp A→B) in data set [4] of 0.02 ×10⁻⁶ cm/s. Further, the efflux ratio in data set [5] is 822.
With `NC(=O)c1ccc(N2CC[C@H](N)C2)nc1Nc1ccc(C(=O)N2CCOCC2)cc1`, the IC50 in data set [1] was 1600 nM.
Still for that read-out and setting: the result for `C=CC(=O)N[C@@H]1CCN(c2ncc(C(N)=O)c(N)n2)C1` reads 500 nM.

The IC50 is the concentration that gives 50% inhibition. What is called inhibition is the percentage by which the read-out fell short of the control. For orientation: Papp A→B means the apparent permeability from the apical to the basolateral side of a cell layer. Read a low Papp A→B as slow passage. The term efflux ratio denotes a quotient of directional permeabilities that is used to spot active efflux. The term half-life denotes the time needed for the level to fall by half in the phase considered. A high value points to slow loss. As a reminder, the AUC is concentration integrated over time. A lower AUC goes with low exposure.
